Measured values from patent US5547958A, “N-(8α-ergolinyl)-amides” (Schering Aktiengesellschaft, priority 1989, dated 1996).

Test system: behavior stereotypes on rats (masticatory, licking, or gnawing movements)
Assay: Stereotype-releasing effectiveness on rats 1 hour after i.p. pretreatment (dopamine agonistic action)
Assay type: in vivo
Conditions: probit analysis, n = 8; for ED50 (effective dose, stereotype-releasing effectiveness): 60th-62nd min p.i.
Experimental: The dopamine agonistic action was determined according to Horowski, R. and Wachtel, H. Eur. J. Pharmaz. col. 36: 373-383, 1976. One hour after i.p. pretreatment with test substance or vehicle, the presence of behavior stereotypes on rats (masticatory, licking, or gnawing movements) was determined for 2 minutes (60th-62nd min. p.i.).
Stereotype-releasing effectiveness on rats 1 hour
after i.p. pretreatment. Effective doses (ED50) with 95%
confidence limit were determined with the help of probit

Structure (SMILES) | ED50 (effective dose, stereotype-releasing effectiveness) | 95% Confidence Limit of ED50
CCCN1CC(NC=S)C[C@@H]2c3cccc4[nH]c(C)c(c34)C[C@H]21 (stereo partly shown) [B, N(2-methyl-6-n-propyl-8ergolinyl)-thioformamide] | 0.050 | 0.034-0.079
CCCN1CC(NC(=S)SC)C[C@@H]2c3cccc4[nH]c(C)c(c34)C[C@H]21 (stereo partly shown) [A, N(2-methyl-6-n-propyl-8ergolinyl)-dithiocarbamic acid methyl ester] | 0.080 | 0.010-0.170
